Experiments:
[1] = test system: mitochondrial respiration; test: mitochondrial respiration (liver mitochondria); assay type: biochemical, rat
Experimental: Studies of Mitochondrial Respiration.
Rat liver mitochondria are prepared using the method of Lai and Clark Methods Enzymol 55:51-60 (1979). The livers are excised rapidly into ice cold isolation medium containing 0.25M sucrose, 10 mM tris(hydroxymethyl)aminomethane (Tris), 0.25% bovine serum albumin (fatty acid free), and 0.5 mM potassium EDTA, pH 7.4. The tissue is minced and rinsed three times in cold isolation medium. The minced tissue is placed in a Dounce homogenizer with 20 ml cold isolation medium, gently homogenized, and diluted with an additional 10 ml of isolation medium. The homogenate is centrifuged at 2,000 g for 3 min., and the resulting supernatant recentrifuged at 12,500 g for 8 min. The crude mitochondrial pellet is suspended in 0.12M mannitol-0.03M sucrose medium containing 3% Ficoll, gently layered onto 20 ml of 6% Ficoll (0.25M mannitol-0.06M sucrose), and centrifuged at 11,500 g for 30 min. The resulting mitochondrial pellet is resuspended in the isolation medium and recentrifuged for 10 min. at 12,500 g. The final pellet is brought to a concentration of 10 to 15 mg of mitochondrial protein per ml with isolation medium. Mitochondrial protein is determined by the Biuret reaction described by Gornall, A. G., et al. Biol Chem 177:751-766 (1949), using bovine serum albumin as a standard. Mitochondrial respiration is measured polarographically in a magnetically stirred chamber at 25° C., using a Clark microelectrode (Diamond Electro-tech, Ann Arbor, Mich.). The incubation medium contains the following (in mM): 5K+, 226 mannitol, 75 sucrose, 5 Tris-phosphate, 10 Tris-Cl, and 0.05 EDTA at pH 7.4. State 4 respiratory rates are determined using both NADH-linked (2.5 mM malate+ 2 mM glutamate) and FADH2 -lined (10 mM succinate) substrates, with 5 mM KCl at pH 7.0. State 3 respiration rates are measured after stimulation with 1.5 mM ADP. Respiratory control ratios are determined as the ratio of State 3 to State 4 respiration after incubation with 0, 50, 100 and 200 μM piroxicam.

[2] = test system: microsomal lipid peroxidation; test: microsomal lipid peroxidation (liver microsomes); assay type: biochemical; settings: 200 μM piroxicam, rat liver microsomes
Experimental: Studies of Microsomal Lipid Peroxidation. […] Rats are euthanized by CO2 narcosis. The livers are excised rapidly into cold isolation medium containing 0.1M sodium phosphate and 2 mM EDTA, pH 7.4. The tissue is minced and homogenized in 3 ml isolation medium per gram of tissue using a Potter-Elvehjam homogenizer. The homogenate is centrifuged at 17,800 g for 20 min., and the pellet discarded. The supernatant is recentrifuged at 100,000 g for 60 min. The resulting pellet is resuspended in isolation buffer and recentrifuged at 100,000 g for 40 min. The final pellet is resuspended in storage buffer containing 100 mM potassium phosphate, 20% glycerol, 1 mM EDTA, 1 mM DTT and 20 μM butylated hydroxytoluene, pH 7.25. This suspension is frozen under liquid nitrogen and stored at -70° CL until use. Microsomal protein is determined by a modification of the Lowry method of Anderson, M. E. Methods Enzymol 113:548-555 (1985). […] Lipid peroxidation in the 1 ml reaction mixture is measured by mixing with 2 ml TBA reagent and assaying for thiobarbituric acid reactivity by the method of Buege and Aust. Values are expressed as the increase in absorbance at 532 nm ([MUT]) per mg microsomal protein and represent the mean of three replicates.

[3] = test system: gastric ulceration; settings: rats and mice; cited from earlier work
[4] = rat liver mitochondria, 0-200 μM piroxicam

NADPH-dependent microsomal lipid peroxidation [2]: no effect
SMILES: CN1C(C(=O)Nc2ccccn2)=C(O)c2ccccc2S1(=O)=O [piroxicam]
respiratory control ([1]; FADH2-linked and NADH-linked substrates): inhibition of respiratory control | rate of mitochondrial oxygen uptake in the absence of ADP (State 4) [1, 4]: increases the rate of mitochondrial oxygen uptake | stimulation of respiration by ADP (State 3) [1, 4]: lost in the presence of piroxicam | ulcerogenicity [3]: highly ulcerogenic
